Measurements: patent US20090192164A1, “Treating agent of inflammatory bowel disease” (ASKA Pharmaceutical Co., Ltd., priority 2006, published 2009)

Columns and labels:
[1] = tested on: TNF-α production in THP-1 cells; assay: TNF-α production-inhibiting activity in LPS-stimulated THP-1 cells; assay type: cell-based; settings: Homo sapiens, 2 hours, ELISA
Method: (2) Measurement of TNF-α Production-Inhibiting Activity:
THP-1 (purchased from Dainippon Pharmaceuticals Co.) which are human-derived cultured cells, were suspended in RPMI1640 culture medium (10% fetal bovine serum, containing 100 units/mL penicillin) (1×10^5 cells/mL). Onto a 24-well culture plate, 1.6 mL of the THP-1 cell suspension was inoculated, and further 0.2 mL of the test substance as dissolved in RPM11640 culture medium and 0.2 mL of LPS (E. Coli 055: B5-derived, dissolved in RPM11640 culture medium, Difco) at a concentration of 10 μg/mL were added, followed by 2 hours' cultivation under the conditions of 37° C. and 5% CO2. The supernatant obtained upon centrifugation (500×g, 5 min.) was assayed with ELISA (Amersham Bioscience, TNF-α: Human, ELISA Biotrak System) to quantify TNF-α. The concentration of each test substance required to inhibit TNF-α production by 50% (IC50) was determined as follows. First, TNF-α production inhibition (%) values at various concentrations were determined by the following formula: […]
The TNF-α production inhibition (%) obtained by the above formula and the concentration of the test substance in that occasion were computed on Prism 4 for Windows Ver 4.02 (Graph Pad Software, Inc.) to calculate IC50 value.

[2] = Compounds' extinction rates in human liver S9; assay type: in vitro ADME; settings: human liver S9 0.5 mg protein/mL, compound 1 μmol/L, 37° C.
Method: (3) Measurement of the Compounds' Extinction Rates:
To a potassium phosphate buffer solution (50 mmol/L, pH […]) containing NADPH production system (formed of 3.3 mmol/L MgCl2, 3.3 mmol/L glucose-6-phosphate, 1.3 mmol/L β-NAPD^+ and 0.4 unit/mL glucose-6-phosphate dehydrogenase), each test compound was added (in which occasion the final concentration was made 1 μmol/L) and incubated at 37° C. for 2 minutes. After the incubation, a suspension of human liver S9 (supernatant fraction obtained by centrifugation of crushed human liver cells at 9000×g) in potassium phosphate buffer solution was added to a final concentration of 0.5 mg protein/mL. This liquid reaction mixture was incubated at 37° C. for 5 minutes, to which 4 volume times thereof of acetonitrile was added, mixed, and cooled with ice. After the cooling with ice, the mixture was centrifuged (2000×g, 10 min.) and a part of the supernatant was recovered and analyzed with LSIMS/MS to calculate the residual ratio of unchanged substance in the reaction solution. The results are shown in the following Table B concurrently with the results of above (2) measurement of TNF-α production-inhibiting activity.

For `Cc1cccc(-c2noc(NC(=O)Cc3ccccc3Br)c2-c2ccncn2)c1` [Compound B-8, 5-[(2-Bromophenyl)acetylamino]-3-(3-methylphenyl)-4-(4-pyrimidinyl)isoxazole], the IC50 [1] was 49.2 nM and the “Parent compound remaining after 5 min in human liver S9 (%)” value (shortened to “Parent compound remaining … (%)”) [2] was 43.6%.
With `Cc1cc(-c2noc(NC(=O)CCc3ccccc3)c2-c2ccncc2)ccc1F` [Compound B-19, 3-(4-Fluoro-3-methylphenyl)-5-(3-phenylpropionylamino)-4-(4-pyridyl)isoxazole] the IC50 [1] was 66 nM and the “Parent compound remaining … (%)” value [2] was 20.1%.
For `Cc1ccc(F)c(-c2noc(NC(=O)Cc3ccccc3)c2-c2ccncn2)c1` [Compound B-11, 3-(2-Fluoro-5-methylphenyl)-5-(phenylacetylamino)-4-(4-pyrimidinyl)isoxazole], the IC50 [1] was 90.5 nM and the “Parent compound remaining … (%)” value [2] was 39.8%.
In the case of `COc1ccc(-c2noc(NC(=O)Cc3ccccc3Cl)c2-c2ccncn2)c(F)c1` [Compound B-6, 5-[(2-Chlorophenyl)acetylamino]-3-(2-fluoro-4-methoxyphenyl)-4-(4-pyrimidinyl)isoxazole], the IC50 [1] is reported as 28.5 nM and the “Parent compound remaining … (%)” value [2] is reported as 24.1%.
For `Cc1cc(-c2noc(NC(=O)Cc3ccccc3)c2-c2ccncc2)ccc1F` [Compound B-17, 3-(4-Fluoro-3-methylphenyl)-5-(phenylacetylamino)-4-(4-pyridyl)isoxazole], the IC50 [1] was 78.1 nM and the “Parent compound remaining … (%)” value [2] was 58.0%.
In the case of `Cc1cccc(-c2noc(NC(=O)Cc3ccccc3Cl)c2-c2ccncn2)c1` [Compound B-7, 5-[(2-Chlorophenyl)acetylamino]-3-(3-methylphenyl)-4-(4-pyrimidinyl)isoxazole], the IC50 [1] is reported as 36.7 nM and the “Parent compound remaining … (%)” value [2] is reported as 21.2%.
With `CCn1nc(-c2ccc(F)cc2)c(-c2ccncn2)c1C(=O)OCc1ccc(Cl)cc1Cl` [Compound B-21] the IC50 [1] was 61.5 nM and the “Parent compound remaining … (%)” value [2] was 56.4%.
For `Cc1cccc(-c2nn(C)c(COC(=O)c3ccccc3)c2-c2ccncc2)c1` [Compound B-22], the IC50 [1] was 45.5 nM and the “Parent compound remaining … (%)” value [2] was 25.5%.
With `Cc1cccc(-c2noc(NC(=O)CCc3ccccc3C)c2-c2ccncc2)c1` [Compound B-15, 3-(3-Methylphenyl)-5-[(2-methylphenyl)propionylamino]-4-(4-pyridyl)isoxazole] the IC50 [1] was 52.9 nM and the “Parent compound remaining … (%)” value [2] was 23.3%.
With `Cc1cc(-c2noc(NC(=O)Cc3ccccc3C)c2-c2ccncn2)ccc1F` [Compound B-13, 3-(3-Methyl-4-fluorophenyl)-5-[(2-methylphenyl)acetylamino]-4-(4-pyrimidinyl)isoxazole] the IC50 [1] was 13.7 nM and the “Parent compound remaining … (%)” value [2] was 52.6%.
In the case of `O=C(Cc1ccccc1Cl)Nc1onc(-c2ccc(F)cc2)c1-c1ccncn1` [Compound B-1, 5-[(2-Chlorophenyl)acetylamino]-3-(4-fluorophenyl)-4-(4-pyrimidinyl)isoxazole], the IC50 [1] is reported as 36.1 nM and the “Parent compound remaining … (%)” value [2] is reported as 5.8%.
In the case of `Cc1cccc(-c2noc(NC(=O)Cc3ccccc3C)c2-c2ccncn2)c1` [Compound B-9, 3-(3-Methylphenyl)-5-[(2-methylphenyl)acetylamino]-4-(4-pyrimidinyl)isoxazole], the IC50 [1] is reported as 13.4 nM and the “Parent compound remaining … (%)” value [2] is reported as 59.9%.
In the case of `O=C(Cc1ccccc1Cl)Nc1onc(-c2ccc(Cl)cc2)c1-c1ccncn1` [Compound B-3, 3-(4-Chlorophenyl)-5-[(2-chlorophenyl)acetylamino]-4-(4-pyrimidinyl)isoxazole], the IC50 [1] is reported as 48.7 nM and the “Parent compound remaining … (%)” value [2] is reported as 53.1%.
With `Cc1cccc(CC(=O)Nc2onc(-c3cccc(C)c3)c2-c2ccncn2)c1` [Compound B-10, 3-(3-Methylphenyl)-5-[(3-methylphenyl)acetylamino]-4-(4-pyrimidinyl)isoxazole] the IC50 [1] was 152 nM and the “Parent compound remaining … (%)” value [2] was 38.5%.
In the case of `Cc1cccc(-c2noc(NC(=O)CCc3ccccc3)c2-c2ccncc2)c1` [Compound B-14, 3-(3-Methylphenyl)-5-(3-phenylpropionylamino)-4-(4-pyridyl)isoxazole], the IC50 [1] is reported as 65.5 nM and the “Parent compound remaining … (%)” value [2] is reported as 17.6%.
In the case of `CCCn1nc(-c2ccc(F)cc2)c(-c2ccncc2)c1C(=O)OCc1ccccc1Cl` [Compound B-20], the IC50 [1] is reported as 83.3 nM and the “Parent compound remaining … (%)” value [2] is reported as 77.0%.
In the case of `O=C(Cc1ccccc1Cl)Nc1onc(-c2ccc(F)cc2F)c1-c1ccncn1` [Compound B-4, 5-[(2-Chlorophenyl)acetylamino]-3-(2,4-difluorophenyl)-4-(4-pyrimidinyl)isoxazole], the IC50 [1] is reported as 32.1 nM and the “Parent compound remaining … (%)” value [2] is reported as 20.4%.
With `Cc1cccc(CC(=O)Nc2onc(-c3ccc(F)cc3F)c2-c2ccncn2)c1` [Compound B-5, 3-(2,4-Difluorophenyl)-5-[(3-methylphenyl)acetylamino]-4-(4-pyrimidinyl)isoxazole] the IC50 [1] was 139 nM and the “Parent compound remaining … (%)” value [2] was 46.6%.
In the case of `Cc1ccc(F)c(-c2noc(NC(=O)CCc3cccc(Cl)c3)c2-c2ccncc2)c1` [Compound B-16, 5-[(3-Chlorophenyl)propionylamino]-3-(2-fluoro-5-methyl-phenyl)-4-(4-pyridyl)isoxazole], the IC50 [1] is reported as 58.1 nM and the “Parent compound remaining … (%)” value [2] is reported as 50.5%.
With `CCn1nc(-c2cccc(C)c2)c(-c2ccncc2)c1COC(=O)c1ccccc1` [Compound B-23] the IC50 [1] was 26.5 nM and the “Parent compound remaining … (%)” value [2] was 28.3%.
For `COc1cccc(CC(=O)Nc2onc(-c3ccc(F)c(C)c3)c2-c2ccncn2)c1` [Compound B-12, 5-[(3-Methoxyphenyl)acetylamino]-3-(3-methyl-4-fluorophenyl)-4-(4-pyrimidinyl)isoxazole], the IC50 [1] was 52.6 nM and the “Parent compound remaining … (%)” value [2] was 33.1%.
In the case of `O=C(Cc1c(F)cccc1Cl)Nc1onc(-c2ccc(F)cc2)c1-c1ccncn1` [Compound B-2, 5-[(2-Chloro-6-fluorophenyl)acetylamino]-3-(4-fluorophenyl)-4-(4-pyrimidinyl)isoxazole], the IC50 [1] is reported as 67.9 nM and the “Parent compound remaining … (%)” value [2] is reported as 16.1%.
With `Cc1cc(-c2noc(NC(=O)Cc3ccccc3Cl)c2-c2ccncc2)ccc1F` [Compound B-18, 5-[(2-Chlorophenyl)acetylamino]-3-(4-fluoro-3-methylphenyl)-4-(4-pyridyl)isoxazole] the IC50 [1] was 85.2 nM and the “Parent compound remaining … (%)” value [2] was 59.7%.
